From ChEMBL document CHEMBL1201862, “PubChem BioAssay data set” (2004)
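Tested at 5 concentrations; 48 h exposure; 96-well plates; endpoints linearly interpolated, else capped at highest concentration. GI50 is the concentration that inhibits growth by half.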 Activity calls are given as the source filed them. No stated cut-off is given here; in the data, active = GI50 up to about 1.1 µM and inactive = higher.

How the values were obtained:
Assay in all cases: DTP human tumour cell line panel, 48 h
[1] = test system: SNB-19
[2] = test system: TK-10
[3] = test system: KM12
[4] = test system: PC-3
[5] = test system: RXF 393
[6] = test system: MCF7
[7] = test system: NCI-H23
[8] = test system: MOLT-4
[9] = test system: K562
[10] = test system: MDA-N
[11] = test system: ACHN
[12] = test system: HOP-92
[13] = test system: SF-295
[14] = test system: OVCAR-3
[15] = test system: A549
[16] = test system: SK-MEL-2
[17] = test system: HOP-62
[18] = test system: IGROV-1
[19] = test system: Hs-578T
[20] = test system: OVCAR-4

C1CCN2CC3CCCN4CCCC(C2C1)C34 (stereo unspecified)
GI50 [1]: > 100 µM (inactive) | GI50 [2]: > 100 µM (inactive) | GI50 [3]: > 100 µM (inactive) | GI50 [4]: > 100 µM (inactive) | GI50 [5]: > 100 µM (inactive) | GI50 [6]: > 100 µM (inactive) | GI50 [7]: > 100 µM (inactive) | GI50 [8]: > 100 µM (inactive) | GI50 [9]: > 100 µM (inactive) | GI50 [10]: > 100 µM (inactive) | GI50 [11]: > 100 µM (inactive) | GI50 [12]: > 100 µM (inactive) | GI50 [13]: > 100 µM (inactive) | GI50 [14]: > 100 µM (inactive) | GI50 [15]: > 100 µM (inactive) | GI50 [16]: > 100 µM (inactive) | GI50 [17]: > 100 µM (inactive) | GI50 [18]: > 100 µM (inactive) | GI50 [19]: > 100 µM (inactive)

O=C(O)C(Cc1ccccc1-c1ccccc1)C(=O)O
GI50 [1]: > 100 µM (inactive) | GI50 [2]: > 100 µM (inactive) | GI50 [3]: > 100 µM (inactive) | GI50 [4]: > 100 µM (inactive) | GI50 [5]: > 100 µM (inactive) | GI50 [6]: > 100 µM (inactive) | GI50 [7]: > 100 µM (inactive) | GI50 [8]: > 100 µM (inactive) | GI50 [9]: > 100 µM (inactive) | GI50 [10]: > 100 µM (inactive) | GI50 [11]: > 100 µM (inactive) | GI50 [12]: > 100 µM (inactive) | GI50 [13]: 86.7 µM (inactive) | GI50 [14]: 97.1 µM (inactive) | GI50 [20]: > 100 µM (inactive) | GI50 [15]: > 100 µM (inactive) | GI50 [16]: > 100 µM (inactive) | GI50 [18]: > 100 µM (inactive) | GI50 [19]: > 100 µM (inactive)

N#CC1(C#N)C2CCCCC23OC(=N)C1(C#N)C(c1ccccc1)O3 (stereo unspecified)
GI50 [1]: 45.9 µM (inactive) | GI50 [2]: 16.6 µM (inactive) | GI50 [3]: 8.49 µM (inactive) | GI50 [4]: 21.4 µM (inactive) | GI50 [5]: 31.8 µM (inactive) | GI50 [6]: 16.6 µM (inactive) | GI50 [7]: 30.5 µM (inactive) | GI50 [8]: 25.1 µM (inactive) | GI50 [9]: 7.11 µM (inactive) | GI50 [10]: 14 µM (inactive) | GI50 [11]: 36.1 µM (inactive) | GI50 [12]: 15.5 µM (inactive) | GI50 [13]: 69 µM (inactive) | GI50 [14]: 13.6 µM (inactive) | GI50 [15]: > 100 µM (inactive) | GI50 [16]: 20.2 µM (inactive) | GI50 [18]: 19 µM (inactive) | GI50 [19]: 0.302 µM (active)

CC1(C)O[C@H](C(=O)O)[C@@H](C(=O)O)O1
GI50 [1]: > 100 µM (inactive) | GI50 [2]: > 100 µM (inactive) | GI50 [3]: > 100 µM (inactive) | GI50 [4]: > 100 µM (inactive) | GI50 [5]: > 100 µM (inactive) | GI50 [6]: > 100 µM (inactive) | GI50 [8]: > 100 µM (inactive) | GI50 [9]: > 100 µM (inactive) | GI50 [10]: > 100 µM (inactive) | GI50 [11]: > 100 µM (inactive) | GI50 [12]: > 100 µM (inactive) | GI50 [13]: > 100 µM (inactive) | GI50 [20]: > 100 µM (inactive) | GI50 [15]: > 100 µM (inactive) | GI50 [16]: > 100 µM (inactive) | GI50 [17]: > 100 µM (inactive) | GI50 [18]: > 100 µM (inactive) | GI50 [19]: > 100 µM (inactive)

NCCCCCCn1c(-c2ccc(Br)cc2)cs/c1=N\c1ccccc1
GI50 [1]: 14.9 µM (inactive) | GI50 [2]: 13.6 µM (inactive) | GI50 [3]: 5.74 µM (inactive) | GI50 [4]: 5.86 µM (inactive) | GI50 [5]: 10.9 µM (inactive) | GI50 [6]: 5.21 µM (inactive) | GI50 [7]: 14.7 µM (inactive) | GI50 [8]: 3.83 µM (inactive) | GI50 [9]: 2.01 µM (inactive) | GI50 [10]: 6.28 µM (inactive) | GI50 [11]: 14.6 µM (inactive) | GI50 [12]: 12.7 µM (inactive) | GI50 [13]: 16 µM (inactive) | GI50 [14]: 10.9 µM (inactive) | GI50 [20]: 12.7 µM (inactive) | GI50 [15]: 12.5 µM (inactive) | GI50 [16]: 18.6 µM (inactive) | GI50 [17]: 16.8 µM (inactive) | GI50 [19]: 13.1 µM (inactive)

CC[C@@]1(OC(=O)C(N)CCC(=O)O)C(=O)OCc2c1cc1n(c2=O)Cc2cc3ccccc3nc2-1 (stereo partly specified)
GI50 [1]: 0.0541 µM (active) | GI50 [2]: 4.33 µM (inactive) | GI50 [4]: 0.194 µM (active) | GI50 [5]: 0.147 µM (active) | GI50 [6]: < 0.01 µM (active) | GI50 [7]: 0.0345 µM (active) | GI50 [8]: 0.0106 µM (active) | GI50 [9]: 0.314 µM (active) | GI50 [10]: 0.314 µM (active) | GI50 [11]: 0.0187 µM (active) | GI50 [12]: 0.615 µM (active) | GI50 [13]: 0.0213 µM (active) | GI50 [14]: 0.417 µM (active) | GI50 [20]: 1.24 µM (inactive) | GI50 [15]: 0.0348 µM (active) | GI50 [16]: 1.12 µM (active) | GI50 [17]: < 0.0124 µM (active) | GI50 [18]: 0.513 µM (active) | GI50 [19]: 7.05 µM (inactive)

COc1ccc(/C(=N\Nc2ccccn2)c2ccccn2)cc1
GI50 [1]: 0.544 µM (active) | GI50 [3]: 0.16 µM (active) | GI50 [4]: 0.0306 µM (active) | GI50 [5]: 2.59 µM (inactive) | GI50 [6]: < 0.01 µM (active) | GI50 [7]: 0.0272 µM (active) | GI50 [8]: < 0.01 µM (active) | GI50 [9]: < 0.0107 µM (active) | GI50 [10]: 0.631 µM (active) | GI50 [11]: < 0.01 µM (active) | GI50 [12]: < 0.045 µM (active) | GI50 [13]: 0.301 µM (active) | GI50 [14]: < 0.01 µM (active) | GI50 [20]: 11.4 µM (inactive) | GI50 [15]: 0.149 µM (active) | GI50 [16]: 3.37 µM (inactive) | GI50 [17]: 0.217 µM (active) | GI50 [18]: 0.0167 µM (active) | GI50 [19]: 0.625 µM (active)
